For test [1], the system named is basal secretion of IL-6, human glial U-343 cells. Nature of the test: IL-6 ELISA, basal secretion of IL-6 into conditioned medium. The test is classed as cell-based. The conditions noted are these: inhibitor 20 μM, 24 hours, serum-free medium, untreated = 100%, read-out: Extracellular IL-6 concentration, % of untreated cells. As to the method: To analyze basal secretion of IL-6, human glial U-343 cells were cultured in 6 well plates (1.5×10^6 cells/well, Greiner) and treated with specific PEP inhibitors as indicated (20 μM each) for 24 hours in serum-free D-MEM medium (Invitrogen). Aliquots of 40 μl conditioned medium were used to quantify the amount of secreted IL-6 by an human-specific IL-6 ELISA (Biosource) following the manufacturer's instructions. All data were obtained in quadruplicate. For the calculation of the IL-6 concentration in the cell culture medium after PEP-inhibitor treatment, the basal IL-6 concentration of the cell culture medium of untreated cell samples was set to 100%. The results of the measurement of the IL-6 concentration with PEP-inhibitor treated cells are presented as % of the untreated cell samples.
(§1) The human glioma cell line, U-343 and the human neuroblastoma cell line, SH-SY5Y were maintained in Dulbecco's modified Eagle's medium (DMEM) containing 10% fetal bovine serum (Gibco BRL, Karlsruhe, Germany) and incubated at 37° C. in a 5% CO2 atmosphere. Culture media contained in general 60 μg/ml gentamycin (Gibco BRL, Karlsruhe, Germany).

In test [2] the target is T1, Recombinant human prolyl oligopeptidase (Homo sapiens, UniProt P48147).
T1 construct: made in house; host or cells: E. coli
T1 sequence (P48147 1-710): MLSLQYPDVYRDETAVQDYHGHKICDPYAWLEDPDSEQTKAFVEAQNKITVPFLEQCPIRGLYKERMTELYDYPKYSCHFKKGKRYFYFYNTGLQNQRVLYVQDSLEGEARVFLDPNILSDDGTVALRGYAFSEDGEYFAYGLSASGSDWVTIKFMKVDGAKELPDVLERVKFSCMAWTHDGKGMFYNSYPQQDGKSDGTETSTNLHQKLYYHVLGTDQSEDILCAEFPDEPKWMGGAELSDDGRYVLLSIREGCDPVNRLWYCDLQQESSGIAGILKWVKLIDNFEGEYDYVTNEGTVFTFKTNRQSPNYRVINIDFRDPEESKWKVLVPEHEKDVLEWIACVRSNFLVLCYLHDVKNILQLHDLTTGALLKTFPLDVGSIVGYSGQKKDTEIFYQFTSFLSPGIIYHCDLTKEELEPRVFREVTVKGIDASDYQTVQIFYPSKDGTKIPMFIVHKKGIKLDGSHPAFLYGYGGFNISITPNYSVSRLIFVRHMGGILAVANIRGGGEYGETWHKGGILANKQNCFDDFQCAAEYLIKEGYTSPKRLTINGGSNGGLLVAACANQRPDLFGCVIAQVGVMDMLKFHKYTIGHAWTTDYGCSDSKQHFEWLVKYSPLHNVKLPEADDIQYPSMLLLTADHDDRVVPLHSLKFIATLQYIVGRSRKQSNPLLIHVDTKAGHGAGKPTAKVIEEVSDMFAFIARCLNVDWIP
Nature of the test: Determination of IC50- and Ki-values of PEP-inhibitors, chromogenic substrate Cbz-Gly-L-Pro-pNA. The class given is biochemical. The conditions noted are these: for Ki: 4 substrate and 7 inhibitor concentrations, competitive inhibition, pH 7.6, 30° C.; for IC50 / IC50 PEP (M): substrate 0.15 mM, HEPES buffer pH 7.6, 30° C., n.i. means no inhibition. How it is done: Recombinant human prolyl oligopeptidase was used for measurement. Recombinant expression was performed in E. coli under standard conditions as described elsewhere in the state of the art.
For activity measurements the chromogenic substrate Cbz-Gly-L-Pro-pNA was used in HEPES buffer pH 7.6 containing 50 mM HEPES, 200 mM NaCl, 1 mM EDTA, 1 mM DTT, 0.006% Brij35. Measurements were carried out at 30° C. Release of pNA were monitored continuously at 405 nm.
IC50 values were calculated using non-linear regression to a 4-parameter equation (Prism 4.0, GraphPad).
For Ki determination 4 substrate (0.15 mM, 0.08 mM 0.04 mM, 0.02 mM) and 7 inhibitor concentrations in an appropriate range were used. Calculations were performed by multiple non-linear regression analysis to the equation for competitive inhibition using GraFit 5.0 Software (Erithacus Software).

For test [3], the system named is beta-amyloid peptides 1-40 and 1-42, U-343 and SH-SY5Y cells. Nature of the test: Beta-amyloid ELISA, secreted beta-amyloid peptides in conditioned medium. The class given is cell-based. The conditions noted are these: Homo sapiens; inhibitor 20 μM, 24 hours; untreated = 100%; FIG. 2: Abeta 1-42, SH-SY5Y cells; read-out: Extracellular Abeta-concentration % of control. As to the method:
as §1
To quantify intracellular and extracellular concentrations of beta-amyloid peptides, 1-40 and 1-42, U-343 and SH-SY5Y cells were cultured in 6 well plates (1.5×10^6 cells/well) and treated with specific PEP inhibitors (20 μM each) for 24 hours. For quantitation of secreted beta-amyloid peptides the conditioned medium was collected and concentrated by lyophylisation. Likewise, after determination of the cell numbers/well (casy cell counter I, Schärfe System, Reutlingen, Germany), cells were lyzed with cell extraction buffer (Biosource, Solingen, Germany) according to the manufacturer's protocol. The protein concentration was determined by the method of Bradford (1976). Aliquots of 100 μl were used to quantify beta-amyloid peptides 1-40 and 1-42 in quadruplicate by ELISA (IBL, Hamburg, Germany) following the manufacturer's instructions. All obtained intracellular and extracellular concentrations were normalized to cell numbers and protein concentration, respectively.
For the calculation of the concentration of beta-amyloid peptides 1-40 and 1-42 in the cell culture medium after PEP-inhibitor treatment, the basal concentration of beta-amyloid peptides 1-40 and 1-42 in the cell culture medium of untreated cell samples was set to 100%. The results of the measurement of the concentration of beta-amyloid peptides 1-40 and 1-42 with PEP-inhibitor treated cells are presented as % of the untreated cell samples.

The record followed here is patent US20100273835A1, “NOVEL COMPOUNDS” (PROBIODRUG AG, priority 2007, published 2010).

As to `O=C(c1nc2ccccc2s1)[C@@H]1CCCN1C(=O)OCc1ccccc1` [Example 1, 2-[Cbz-L-Pro]Benzothiazole], the activity at 20 µM in test [1] was 40%. In addition, in test [2], the Ki was 0.98 µM and the IC50 turned out to be 7 µM. The activity at 20 µM in test [3] was 155%.

As to `O=C(N[C@@H](Cc1ccccc1)C(=O)c1nc2ccccc2s1)OCc1ccccc1` [Example 2, 2-[Cbz-L-Phe]Benzothiazole], the activity at 20 µM in test [1] came to 44%; in test [3] it was 295%. Also, the IC50 in test [2] is above 100 µM.

Take `O=C(N[C@@H](Cc1ccccc1)C(=O)c1cccs1)OCc1ccccc1` [Example 3, 2-[Cbz-L-Phe]Thiophene]: the activity at 20 µM amounted to 23% in test [1] and 339% in test [3]. Also, the IC50 in test [2] worked out at 1 µM.

As for `O=C(N[C@H](Cc1ccccc1)C(=O)c1nccs1)OCc1ccccc1` [Example 4, 2-[Cbz-D-Phe]Thiazole], the activity at 20 µM was found to be 44% in test [1] and 172% in test [3]. For the same compound, the “IC50 PEP (M)” value in test [2] is “n.i”.

Turning to `O=C(N[C@@H](Cc1ccccc1)C(=O)c1nccs1)OCc1ccccc1` [Example 5, 2-[Cbz-L-Phe]Thiazole], in test [1], the activity at 20 µM worked out at 29%. Further, in test [2], the Ki is 0.00115 µM and the half-maximal inhibitory concentration (IC50) is 0.0012 µM. In test [3], the activity at 20 µM turned out to be 193%.

`C[C@H](NC(=O)OCc1ccccc1)C(=O)c1nc2ccccc2s1` [Example 6, 2-[Cbz-L-Ala]Benzothiazole]: the activity at 20 µM in test [1] is 36%; in test [3], 114%. For the same compound, the half-maximal inhibitory concentration (IC50) in test [2] stood at 4.5 µM.

On to `O=C(N[C@@H](Cc1ccccc1)C(=O)c1ccccn1)OCc1ccccc1` [Example 7, 2-[Cbz-L-Phe]Pyridine], for which the figures for the activity at 20 µM in test [1] and in test [3] were 31% and 236%, respectively. In addition, in test [2], the IC50 was determined as 39 µM.

On to `O=C(N[C@@H](Cc1ccccc1)C(=O)c1cc2ccccc2s1)OCc1ccccc1` [Example 8, 2-[Cbz-L-Phe]Benzo[b]thiophene], for which the figures for the activity at 20 µM in test [1] and in test [3] were 27% and 310%, respectively. In addition, the “IC50 PEP (M)” value in test [2] was “n.i”.

For `O=C(N[C@@H](Cc1ccccc1)C(=O)c1ccccc1)OCc1ccccc1` [Example 9, Cbz-L-Phe-Benzene], in test [1], the activity at 20 µM is 18%. Also, in test [2], the Ki came to 1.6 µM and the IC50 amounted to 5.2 µM. The activity at 20 µM in test [3] was determined as 330%.

Turning to `C[C@H](NC(=O)OCc1ccccc1)C(=O)c1nccs1` [Example 10, 2-[Cbz-L-Ala]Thiazole], the activity at 20 µM in test [1] was 78%. Moreover, in test [2], the Ki was 2.3 µM and the IC50 came out at 7.1 µM. The activity at 20 µM in test [3] is 107%.

In the case of `CC(C)(C)OC(=O)N[C@@H](Cc1ccc([N+](=O)[O-])cc1)C(=O)c1nccs1` [Example 11, 2-[Boc-L-(p-NO2)Phe]Thiazole], the results for the activity at 20 µM in test [1] and in test [3] were 62% and 178%, respectively. Moreover, in test [2], the IC50 stood at 25 µM.

Take `CC(C)(C)OC(=O)N[C@@H](Cc1ccc([N+](=O)[O-])cc1)C(=O)c1ccco1` [Example 12, 2-[Boc-L-(p-NO2)Phe]Furan]: the figures for the activity at 20 µM in test [1] and in test [3] were 37% and 166%, respectively. Moreover, the 50% inhibitory concentration (IC50) in test [2] amounted to 14 µM.

Take `C=CCOC(=O)N[C@@H](Cc1ccccc1)C(=O)c1nc2ccccc2s1` [Example 13, 2-[Aloc-L-Phe]Benzothiazole]: the activity at 20 µM in test [1] came to 69%; in test [3], 106%. In addition, the “IC50 PEP (M)” value in test [2] was “n.i”.

`C=CCOC(=O)N[C@@H](Cc1ccccc1)C(=O)c1nccs1` [Example 14, 2-[Aloc-L-Phe]Thiazole]: the activity at 20 µM in test [1] came to 67%; in test [3] it was 115%.

In the case of `C=CCOC(=O)N[C@@H](Cc1ccccc1)C(=O)c1ccco1` [Example 15, 2-[Aloc-L-Phe]Furan], the figures for the activity at 20 µM in test [1] and in test [3] were 78% and 116%, respectively. In addition, in test [2], the IC50 stood at 10 µM.

`CC(C)(C)OC(=O)N[C@@H](Cc1c[nH]c2ccccc12)C(=O)c1nc2ccccc2s1` [Example 16, 2-[Boc-L-Trp]Benzothiazole]: the values for the activity at 20 µM in test [1] and in test [3] were 23% and 177%, respectively. For the same compound, the IC50 in test [2] worked out at 40 µM.

`CC(C)(C)OC(=O)N[C@@H](Cc1c[nH]c2ccccc12)C(=O)c1nccs1` [Example 17, 2-[Boc-L-Trp]Thiazole]: the activity at 20 µM in test [1] came out at 38%; in test [3] it was 143%. Moreover, the half-maximal inhibitory concentration (IC50) in test [2] is 94 µM.

Turning to `CC(C)(C)OC(=O)N[C@@H](Cc1c[nH]c2ccccc12)C(=O)c1ccco1` [Example 18, 2-[Boc-L-Trp]Furan], the figures for the activity at 20 µM in test [1] and in test [3] were 24% and 163%, respectively. Also, the IC50 in test [2] is 14 µM.

As to `O=C(/C=C/c1ccccc1)N[C@@H](Cc1ccccc1)C(=O)c1nccs1` [Example 19, 2-[Cinnamoyl-L-Phe]Thiazole], the activity at 20 µM is 58% in test [1] and 230% in test [3]. The “IC50 PEP (M)” value in test [2] was “n.i”.

With `CC(C)C[C@H](NC(=O)OC(C)(C)C)C(=O)c1nc2ccccc2s1` [Example 20, 2-[Boc-L-Leu]Benzothiazole], the figures for the activity at 20 µM in test [1] and in test [3] were 63% and 375%, respectively.

For the compound `CC(C)(C)OC(=O)N[C@@H](Cc1ccc([N+](=O)[O-])cc1)C(=O)c1nc2ccccc2s1` [Example 21, 2-[Boc-L-(p-NO2)Phe]Benzothiazole], the figures for the activity at 20 µM in test [1] and in test [3] were 96% and 311%, respectively. Also, the “IC50 PEP (M)” value in test [2] is listed as “n.i”.

`CC(C)(C)OC(=O)N[C@@H](Cc1ccc(I)cc1)C(=O)c1ccco1` [Example 22, 2-[Boc-L-(p-Iodo)Phe]Furan]: the results for the activity at 20 µM in test [1] and in test [3] were 50% and 232%, respectively. The “IC50 PEP (M)” value in test [2] is given as “n.i”.

As to `CC(C)(C)OC(=O)N[C@@H](Cc1ccc(I)cc1)C(=O)c1nccs1` [Example 23, 2-[Boc-L-(p-Iodo)Phe]Thiazole], the activity at 20 µM amounted to 41% in test [1] and 210% in test [3]. Moreover, the “IC50 PEP (M)” value in test [2] is reported as “n.i”.

Turning to `CC(C)(C)OC(=O)N1CCC[C@H]1C(=O)c1nc2ccccc2s1` [Example 24, 2-[Boc-L-Pro]Benzothiazole], the activity at 20 µM in test [1] was determined as 26%; in test [3], 136%.
